Source: patent publication US11957699B2, “Composition comprising punicalagin for inhibiting PAR2 activity” (INDUSTRY-ACADEMIC COOPERATION FOUNDATION, YONSEI UNIVERSITY, priority 2018, dated 2024)

Legend:
[1] = system: C57BL6N mice with pruritus induced by PAR2-AP; experiment: Pruritus induced by PAR2-AP in mice (number of scratches); format: in vivo
Protocol: In seven-week-old C57BL6N mice, it was confirmed whether punicalagin (PG) has an effect of alleviating pruritus symptoms induced by PAR2 receptor activation by PAR2-AP (activating peptide). In addition, the effects of punicalin (PNC) and ellagic acid (EA), which are metabolites of punicalagin and contained in pomegranate peel in a large amount, were also confirmed.
Specifically, each of 0, 1, 3, and 10 mg/kg punicalagin (n=4) was dissolved in physiological saline and intraperitoneally injected, and after 30 minutes, 100 μg of PAR2-AP was intradermally injected to induce pruritus. As control groups, a group which was intraperitoneally injected with physiological saline only (n=4) and a group which was intraperitoneally injected with 10 mg/kg punicalagin (n=4) were established, and the number of scratches was measured for 40 minutes.

PAR2 [2] = biological target: T1, PAR2 (Homo sapiens, UniProt P55085); experiment: Increase of intracellular calcium ions by PAR2-AP in HT-29 cells (Fluo4-NW); format: cell-based; set-up: endogenous in cells; host or cells: HT-29 colon cancer cells
T1 sequence (P55085 26-397): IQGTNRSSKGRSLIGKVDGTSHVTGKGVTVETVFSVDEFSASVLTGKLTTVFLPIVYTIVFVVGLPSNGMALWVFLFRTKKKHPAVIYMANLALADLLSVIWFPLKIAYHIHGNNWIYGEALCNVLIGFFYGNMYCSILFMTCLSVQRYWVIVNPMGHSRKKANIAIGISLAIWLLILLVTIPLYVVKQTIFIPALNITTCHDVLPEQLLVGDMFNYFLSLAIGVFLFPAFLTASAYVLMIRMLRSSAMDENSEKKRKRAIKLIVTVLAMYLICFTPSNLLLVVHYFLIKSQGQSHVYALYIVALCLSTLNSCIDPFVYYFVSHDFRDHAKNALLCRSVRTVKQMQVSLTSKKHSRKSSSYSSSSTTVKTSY
Protocol: After colon cancer cells (HT-29) were cultured for 48 hours in a 96-well micro plate with the RPMI1640 culture medium, the culture medium was removed, and then, 100 μL of the Flou4-NW dye mixture was added. While blocking the light, it was stabilized for 1 hour such that a calcium ion dye (Ca^2+ dye) was loaded into the cells. Next, after treating punicalin (0, 3, 10, and 30 μM), punicalagin (0, 0.3, 1, 2, 3, and 10 μM), or ellagic acid (0, 30, and 100 μM) for 10 minutes by concentration, each well was treated with 30 μM PAR2-AP (PAR2-activating peptide, SLIGRL-NH2) to measure the concentration change in intracellular calcium ions.

PAR2 [3] = biological target: T1, PAR2; experiment: Intracellular calcium increase by trypsin (PAR2 receptor activation) in HaCaT keratinocytes; format: cell-based; set-up: endogenous in cells; host or cells: HaCaT keratinocytes; conditions: HaCaT, 0.1 μM trypsin, 10 minutes pretreatment
Protocol: After keratinocytes (HaCaT) were cultured for 48 hours in a 96-well micro plate with the DMEM culture medium, the culture medium was removed, and then, 100 μL of the Flou4-NW dye mixture was added. While blocking the light, it was stabilized for 1 hour such that a calcium ion dye (Ca^2+ dye) was loaded into the cells. 100 μM punicalagin was treated, and the concentration change of intracellular calcium ions was measured for 5 minutes (panel A of FIG. 17). Next, punicalin (0, 1, 3, 10, 20, 30, 100, and 300 μM) by concentration (panel B of FIG. 17) or punicalagin (0, 1, 3, 5, 10, 20, 30, and 100 μM) by concentration (panel C of FIG. 17) was treated for 10 minutes, and then, each well was treated with 0.1 μM trypsin to measure the concentration change of intracellular calcium ions according to PAR2 receptor activation.

[4] = system: SD rats with acute pancreatitis induced by caerulein; experiment: Acute pancreatitis induced by caerulein in rats; format: in vivo; conditions: 10 mg/kg, 30 minutes before 40 μg/kg caerulein, pancreas extracted after 2 hours
Protocol: In 6-week-old SD rats, it was confirmed whether punicalagin has an effect of alleviating symptoms of acute pancreatitis induced by caerulein.
Specifically, […], and after 30 minutes, 40 μg/kg of caerulein, which is an acute pancreatitis-inducing substance, was intraperitoneally injected, and then, after 2 hours, the pancreas of the experimental animals was extracted and analyzed.
First, the weight of the extracted pancreas was measured to determine whether punicalagin inhibits edema, which is a symptom of acute pancreatitis. As a result, it was confirmed that when 10 mg/kg punicalagin was administered to […], in which acute pancreatitis was induced by caerulein, the edema of the pancreas was inhibited by 95% or more (panel A of FIG. 8).
Next, as a result of observing the nucleus and cytoplasm of the extracted pancreatic tissue with a microscope through H&E staining in order to confirm the damage to pancreatic cells by caerulein, it was confirmed that in the rats administered with caerulein, the distance between pancreatic cells was increased and the cells were damaged due to symptoms of acute pancreatitis.

Row | inhibitory effect on the PAR2 receptor (PAR2 [2]; found by compound library search and molecular physiological experiments) | inhibition of the PAR2 receptor (PAR2 [2]; HT-29 cells, PAR2-AP, high concentration (100 μM)) | SMILES | number of scratches for 40 minutes ([1]; 10 mg/kg, PAR2-AP group about 240) | inhibition of PAR2 receptor activity by trypsin (PAR2 [3]) | numbers of scratches ([1]; 3 mg/kg ellagic acid group (n=3)) | inhibition of edema of the pancreas (pancreas weight) [4]
1 | relatively weak inhibitory effect | – | O=C1OC[C@H]2OC(O)[C@H](O)[C@@H](O)[C@@H]2OC(=O)c2cc(O)c(O)c(O)c2-c2c(O)c(O)c3oc(=O)c4c(c(O)c(O)c5oc(=O)c2c3c54)-c2c1cc(O)c(O)c2O (mixture of isomers) [punicalin, reference compound] | about 197 times | inhibited PAR2 receptor activity by trypsin in a concentration-dependent manner | – | –
2 | – | did not inhibit | O=c1oc2c(O)c(O)cc3c(=O)oc4c(O)c(O)cc1c4c23 [ellagic acid, reference compound] | – | – | not significantly reduced | not significantly inhibited
